Entries after “also recorded” stand apart in the source; their conditions may differ. FAM = carboxyfluorescein
Key:
[1] = tested on: HDM2 variant C8 (residues 1-125) / p53; test: In vitro pull-down, selectant C8; format: binding, human; conditions: PM2 10 μM; HDM2 residues 1-125
Experimental: (§3) Protein G beads were incubated with anti-HA (1μg per 10μL beads) for 1 hour in PBST-3%BSA and subsequently washed thrice in PBST-0.1%BSA. IVT-expressed protein was incubated with the beads on a rotator for 30 mins. […] IVT-containing secondary protein was added to the mixture and incubation allowed for 1 hour. Beads were finally washed thrice in PBST-0.1%BSA and thrice with PBS, and bound proteins eluted by resuspension in 20μL SDS-PAGE loading buffer and incubation at 95 °C for 5 minutes. Where required, blank IVT extract (no template DNA added) was used as control. The eluates were subjected to electrophoresis, transferred to nitrocellulose membranes and probed for p53 with DO1-HRP or for HDM2 with anti-HA antibody followed by rabbit anti-mouse (Dakocytomation). Image acquisition was carried out using either film or digitally (Odyssey FC, Li-Cor).

[2] = tested on: HDM2 variant C11 (residues 1-125) / p53; test: In vitro pull-down, selectant C11; format: binding, human; conditions: PM2 10 μM; HDM2 residues 1-125
Experimental: as §3

[3] = tested on: HDM2 variant C12 (residues 1-125) / p53; test: In vitro pull-down, selectant C12; format: binding, human; conditions: PM2 10 μM; HDM2 residues 1-125
Experimental: as §3

[4] = tested on: HDM2-C8 (residues 1-125), M62A reverted / p53; test: In vitro pull-down, C8 with M62A reverted; format: binding, human
Experimental: as §3

[5] = tested on: HDM2 L34P (residues 1-125) / p53; test: In vitro pull-down, L34P; design: species or system human; conditions: PM2 10 μM; N-terminal point mutant L34P; reduced p53 binding
Experimental: as §3

[6] = tested on: HDM2 Y60C (residues 1-125) / p53; test: In vitro pull-down, Y60C; design: species or system human; conditions: PM2 10 μM; N-terminal point mutant Y60C; reduced p53 binding
Experimental: as §3

[7] = tested on: HDM2 F55L (residues 1-125) / p53; test: In vitro pull-down, F55L; design: species or system human; conditions: PM2 10 μM; N-terminal point mutant F55L; p53 binding retained
Experimental: as §3

[8] = tested on: HDM2 P89S (residues 1-125) / p53; test: In vitro pull-down, P89S; design: species or system human; conditions: PM2 10 μM; N-terminal point mutant P89S; p53 binding retained
Experimental: as §3

[9] = tested on: HDM2 I99V (residues 1-125) / p53; test: In vitro pull-down, I99V; design: species or system human; conditions: PM2 10 μM; N-terminal point mutant I99V; p53 binding retained
Experimental: as §3

[10] = tested on: HDM2 Y67H (N-terminal domain) / p53; test: In vitro pull-down, Y67H; format: binding, human; conditions: N-terminal point mutant Y67H
Experimental: as §3

[11] = tested on: HDM2 C77R (residues 1-125) / p53; test: In vitro pull-down, C77R; format: binding, human; conditions: N-terminal point mutant C77R
Experimental: as §3

[12] = tested on: HDM2 V108A (N-terminal domain) / p53; test: In vitro pull-down, V108A; format: binding, human; conditions: N-terminal point mutant V108A
Experimental: as §3

[13] = tested on: C8-derived point mutants in full-length HDM2 / p53; test: In vitro pull-down, full-length point mutants; format: binding, human; conditions: PM2 10 μM; full-length HDM2, mutations displaying the PM2-resistant phenotype
Experimental: as §3

[14] = tested on: HDM2 K36E (1-125) / p53; test: In vitro pull-down, K36E; format: binding, human; conditions: HDM2 (1-125) K36E
Experimental: as §3

[15] = tested on: HDM2 Y48C (1-125) / p53; test: In vitro pull-down, Y48C; format: binding, human; conditions: HDM2 (1-125) Y48C
Experimental: as §3

[16] = tested on: WT and indicated C8-derived HDM2 (1-125) point mutants / p53; test: In vitro pull-down, Fig. S1A; format: binding, human
Experimental: as §3

[17] = tested on: WT and indicated C11/C12-derived HDM2 (1-125) mutants / p53; test: In vitro pull-down, Fig. S1B; format: binding, human
Experimental: as §3

[18] = tested on: WT and indicated HDM2 (1-125) single and double point mutants / p53; test: In vitro pull-down, Fig. S3; format: binding, human
Experimental: as §3

[19] = tested on: HDM2 F55A (1-125) / p53; test: In vitro pull-down, F55A; format: binding, human; conditions: HDM2 (1-125) F55A
Experimental: as §3

[20] = tested on: wild-type HDM2 (full-length) / p53 in p53/MDM2-null DKO cells; test: p53 reporter assay in DKO cells, WT HDM2; format: cell-based, mouse; conditions: for p53 activity: percentage of p53-alone, ~ 6% without inhibitor
Experimental: (§1) Mouse embryonic fibroblast p53/Mdm2 double-knockout (DKO) cells (a kind gift from Guillermina Lozano) were maintained in Dulbecco's modified Eagle's medium (DMEM) with 10% (v/v) foetal calf serum (FCS) and 1% (v/v) penicillin/streptomycin. The cells were seeded at 1.0 × 10^5 cells/well in 6-well plates, 24 hours prior to transfection. Cells were co-transfected with parental or individual PM2-resistant HDM2 plasmid, p53-pcDNA plasmid, LacZ reporter plasmid and luciferase transfection efficiency plasmid using TurboFect transfection reagent (Thermo Scientific) according to the manufacturer's instructions. […] In all cases, the total amount of plasmid DNA transfected per well was equilibrated by addition of the parental vector pcDNA3.1a (+).
(§2) DKO cells were harvested 24hours post transfection and β-galactosidase activities were assessed using the Dual-light System (Applied Biosystems) according to the manufacturer's protocol. β-galactosidase activity was normalized with luciferase activity for each sample. To check for expression levels of relevant proteins via western blot, 5 μg of the cell lysates were probed for p53 with horseradish peroxidase conjugated DO1 antibody, for HDM2 and actin with anti-HA antibody and AC15 antibody respectively followed by rabbit anti-mouse.

[21] = tested on: HDM2-C8 (full-length) / p53 in p53/MDM2-null DKO cells; test: p53 reporter assay in DKO cells, HDM2-C8; format: cell-based, mouse
Experimental: as §1, §2

[22] = tested on: HDM2 L34P (full length) / p53 in p53/MDM2-null DKO cells; test: p53 reporter assay in DKO cells, L34P; format: cell-based, mouse; conditions: knockdown of p53 activity decreased ~7 fold vs WT
Experimental: Mouse embryonic fibroblast p53/Mdm2 double-knockout (DKO) cells (a kind gift from Guillermina Lozano) [58] were maintained in Dulbecco's modified Eagle's medium (DMEM) with 10% (v/v) foetal calf serum (FCS) and 1% (v/v) penicillin/streptomycin. The cells were seeded at 1.0 × 10^5 cells/well in 6-well plates, 24 hours prior to transfection. […] In all cases, the total amount of plasmid DNA transfected per well was equilibrated by addition of the parental vector pcDNA3.1a (+).

[23] = tested on: HDM2 Y60C (full length) / p53 in p53/MDM2-null DKO cells; test: p53 reporter assay in DKO cells, Y60C; format: cell-based, mouse; conditions: knockdown of p53 activity decreased ~7 fold vs WT
Experimental: as §1, §2

[24] = tested on: HDM2 F55L (full length) / p53 in p53/MDM2-null DKO cells; test: p53 reporter assay in DKO cells, F55L; format: cell-based, mouse; conditions: knockdown reduced ~[…] vs WT
Experimental: as §1, §2

[25] = tested on: HDM2 I99V (full length) / p53 in p53/MDM2-null DKO cells; test: p53 reporter assay in DKO cells, I99V; format: cell-based, mouse; conditions: knockdown reduced ~[…] vs WT
Experimental: as §1, §2

[26] = tested on: HDM2 P89S (full length) / p53 in p53/MDM2-null DKO cells; test: p53 reporter assay in DKO cells, P89S; format: cell-based, mouse; conditions: PM2
Experimental: as §1, §2

[27] = tested on: HDM2-F55L (residues 7-134, RFP fusion) / p53 (residues 1-81, GFP fusion) in F2H-BHK cells; test: Fluorescent two-hybrid (F2H) co-localization assay; format: cell-based; conditions: PM2 0-50 μM, 6-8 hours, serum-free DMEM, 37°C; n=2
[28] = tested on: xenograft tumours in mice; p53; design: method as in PMID 25145672, PMID 26070072; conditions: cited from earlier work
[29] = tested on: HDM2 L82P; conditions: at the cost of reduced p53 binding; cited from earlier work
Description: The crystal structure of the stapled peptide M06 bound to HDM2-M62A was recently described. […] The side chains of L34 and Y60 pack against numerous hydrophobic residues contributing to the p53-binding hydrophobic cleft (Figure 8). Mutations to less bulky residues (P and C respectively) likely result in altered struc ...

[30] = tested on: HDM2 M62A; conditions: M62A mutation; earlier selection of Nutlin-resistant HDM2; cited from earlier work
[31] = target: T1, HDM2 (amino acids 1-125), recombinant (human, UniProt Q00987 1-125); test: fluorescence polarisation; competitive fluorescence anisotropy, apparent Kd; PM2 or p53 peptide titrated against wild-type HDM2 at 150 nM or HDM2-F55L at 200 nM with 50 nM FAM-12-1 peptide; PBS pH 7.4, 3% DMSO, 0.1% Tween-20; conditions: both partners purified
T1 construct: also called WT HDM2; source: E. coli BL21(DE3) pLysS, purified (GSTrap, on-column PreScission cleavage, Resource S cation exchange)

[32] = target: T2, HDM2-F55L (amino acids 1-125), recombinant (human, UniProt Q00987 1-125, F55L); test: as above; conditions: both partners purified
T2 construct: also called mutant HDM2-F55L; source: E. coli BL21(DE3) pLysS, purified (GSTrap, on-column PreScission cleavage, Resource S cation exchange)
T2 sequence (Q00987 1-125 F55L): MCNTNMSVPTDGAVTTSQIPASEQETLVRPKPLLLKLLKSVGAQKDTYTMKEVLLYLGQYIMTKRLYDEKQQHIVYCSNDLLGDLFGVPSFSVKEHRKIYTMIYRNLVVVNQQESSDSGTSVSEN

T1 sequence (Q00987 1-125): as the sequence (Q00987 1-125 F55L) above, with L55F counted along it

CC(=O)N[C@H](C(=O)N[C@@H](CO)C(=O)N[C@@H](Cc1ccccc1)C(=O)N[C@]1(C)CCCCCCC=CCCC[C@@](C)(C(N)=O)NC(=O)[C@H](CC(C)C)NC(=O)[C@H](CC(C)C)NC(=O)[C@H](C)NC(=O)[C@H](Cc2c[nH]c3ccccc23)NC(=O)[C@H](Cc2ccc(O)cc2)NC(=O)[C@H](CCC(=O)O)NC1=O)[C@@H](C)O [PM2]
PM2 resistance (inhibition of p53 pull-down) [1]: appeared significantly resistant to PM2, with little or no reduction in their interaction with p53 in the presence of PM2
PM2 resistance (inhibition of p53 pull-down) [2]: appeared significantly resistant to PM2, with little or no reduction in their interaction with p53 in the presence of PM2
PM2 resistance (inhibition of p53 pull-down) [3]: appeared significantly resistant to PM2, with little or no reduction in their interaction with p53 in the presence of PM2
PM2 resistance after reversion of M62A in C8 [4]: little impact upon reversion of the M62A mutation to PM2 binding in HDM2-C8; also recorded: reversion of this mutation in the C8 selectant did not alter the phenotype
PM2 resistance (inhibition of p53 pull-down) [5]: clearly resistant to PM2 binding
PM2 resistance (inhibition of p53 pull-down) [6]: clearly resistant to PM2 binding
PM2 resistance (inhibition of p53 pull-down) [7]: showed weak resistance to PM2
PM2 resistance (inhibition of p53 pull-down) [8]: showed weak resistance to PM2
PM2 resistance (inhibition of p53 pull-down) [9]: showed weak resistance to PM2
PM2 resistance (inhibition of p53 pull-down) [10]: showed no PM2-resistance phenotype
PM2 resistance (inhibition of p53 pull-down) [11]: showed no PM2-resistance phenotype
PM2 resistance (inhibition of p53 pull-down) [12]: showed no PM2-resistance phenotype
PM2 resistance (inhibition of p53 pull-down) [13]: reduced inhibition by PM2; also recorded: behaved similarly when introduced as point mutants into full-length HDM2
resistance phenotype (p53 pull-down) [14]: Only the L54P mutation showed an exceptionally weak resistance phenotype
resistance phenotype (p53 pull-down) [15]: Only the L54P mutation showed an exceptionally weak resistance phenotype
PM2 inhibition of p53 pull-down [16]: no significant reduction in PM2 inhibition
PM2 inhibition of p53 pull-down [17]: no significant reduction in PM2 inhibition
PM2 inhibition of p53 pull-down [18]: no significant reduction in PM2 inhibition
effect of F55A on interaction with p53 or PM2 [19]: make little difference towards interaction with p53 or PM2
p53 activity ([20]; PM2 20 μM): ~ 26%
magnitude of rescue of p53 activity by PM2 ([20]; comparison with F55L and I99V (Figures 6B, 6C)): ~ 4 fold
increase in p53 activity on addition of PM2 ([21]; PM2 20 μM): did not result in any significant increase in p53 activity
rescue of p53 activity by PM2 [22]: no rescue observed
rescue of p53 activity by PM2 [23]: no rescue observed
magnitude of rescue of p53 activity by PM2 [24]: ~ 3.2 fold
magnitude of rescue of p53 activity by PM2 [25]: ~ 3.2 fold
behaviour in p53 reporter assay [26]: essentially behaved like wild-type HDM2
inhibition of p53-HDM2 F55L interaction compared to WT [27]: no significant difference compared to WT for inhibition

CC(C)(C)C[C@@H]1N[C@@H](C(=O)N[C@H]2CC[C@H](O)CC2)[C@H](c2cccc(Cl)c2F)[C@]12C(=O)Nc1cc(Cl)ccc12 [SAR405838]
development of resistance [28]: development of resistance to the Nutlin analogue SAR405838 was associated with a point-mutated p53 that still retained activity

Nutlin [reference compound]
p53 activity ([20]; Nutlin 10 μM): ~ 26%
effect of Nutlin on C8 function ([21]; Nutlin 10 μM): had little effect in abrogating the function of C8
rescue of p53 activity by Nutlin [23]: no rescue observed
resistance of L82P to Nutlin binding [29]: resistant to Nutlin binding at the cost of reduced p53 binding
effect of M62A on Nutlin binding [30]: shown to abrogate Nutlin binding

B1: carboxyfluorescein (FAM) labelled 12-1 peptide (peptide)
peptide: {FAM}-RFMDYWEGL-NH2
notes: tracer peptide of the fluorescence anisotropy assay; also called the labelled peptide
binding result [31]: binds
binding result [32]: binds
